{"source": "patent US5763395A", "about": "“Stabilized lanthionine bacteriocin compositions” (Ambi Inc., priority 1995, dated 1998)", "key": {"[1]": {"experiment": "Nisin stability in topical germicide formulations under stressed conditions (RPHPLC)", "conditions": "for Residual nisin concentration as a percentage of the theoretical concentration: 5 days 40° C., pH 6, additive 1 mM (nisin = control)", "source_text": "i) Analytical reverse phase high pressure liquid chromatography (RPHPLC). The analyte (nisin) in solution is passed through a column of hydrophic beads to which the nisin tends to bind. The solution flowing through the column is then made progressively more hydrophobic by increasing acetonitrile concentration until it causes the nisin to be released from the beads and eluted from the column. The emergence of the nisin from the column is detected by measuring the absorbance of light at 210 nm by the effluent.\nIn order to expedite the execution of these experiments the formulations were subjected to \"stressed\" conditions, ie pH 6 and 40° C.; both intended to accelerate any degradation effects taking place. The stability of nisin in the formulations was evaluated by RPHPLC.\nFormulations were prepared with nisin at 25 μg/ml and titrated to pH 6. […]"}, "[2]": {"experiment": "Commonly used antioxidants tested for protection of nisin in formulation", "type": "physicochemical", "conditions": "methods of Example 2", "procedure": "In order to further analyze the nisin degradation associated with one particular surfactant/emulsifier, polysorbate, material was obtained from as many manufacturers as possible. Where possible, multiple production batches were obtained from each manufacturer. Other emulsifiers or surfactants believed to closely resemble polysorbate in their properties as well as dissimilar surfactants were also tested. An oral rinse formulation containing nisin was prepared using each of these compounds and, after incubation, samples were analyzed to evaluate nisin stability.\nA number of commonly used antioxidants were tested for their ability to protect nisin in formulation using the methods described in Example 2. None of the compounds tested gave satisfactory protection of nisin."}, "[3]": {"experiment": "Glycerol/sorbitol batches and chelating agents screened for effects on nisin stability in oral rinse formulations (RPHPLC)", "type": "physicochemical", "procedure": "i) Analytical reverse phase high pressure liquid chromatography (RPHPLC).\nFormulations of nisin useful as oral rinses comprising EDTA and the humectant glycerol were also prepared and analyzed by RPHPLC.\nGlycerol and sorbitol from a number of sources, and a number of alternative chelators, were screened (Tables 2 and 3)."}, "[4]": {"conditions": "T-MAZ 20 1%, 6 days at 40° C., initial nisin 25 μg/ml, label nisin = no methionine"}, "[5]": {"conditions": "T-MAZ 20 BATCH 348, 2 weeks at 40° C., nisin formulated at 25 μg/ml, label nisin = water control"}, "[6]": {"conditions": "T-MAZ 20 BATCH 357, 2 weeks at 40° C., nisin formulated at 25 μg/ml, label nisin = water control"}, "[7]": {"conditions": "T-MAZ 20 batch 348, EDTA 1 mM, nisin 25 μg/ml, samples jd6-35-H 49-52"}, "[8]": {"conditions": "T-MAZ 20 batch 348, citrate 0.1%, nisin 25 μg/ml, samples jd6-35-H 53-56"}, "[9]": {"conditions": "T-MAZ 20 batch 348, citrate 0.3%, nisin 25 μg/ml, samples jd6-35-H 57-60"}, "[10]": {"conditions": "T-MAZ 20 batch 348, citrate 1.0%, nisin 25 μg/ml, samples jd6-35-H 61-64"}, "[11]": {"conditions": "T-MAZ 20 batch 357, EDTA 1 mM, nisin 25 μg/ml, samples jd6-35-H 33-36"}, "[12]": {"conditions": "T-MAZ 20 batch 357, citrate 0.1%, nisin 25 μg/ml, samples jd6-35-H 37-40"}, "[13]": {"conditions": "T-MAZ 20 batch 357, citrate 0.3%, nisin 25 μg/ml, samples jd6-35-H 41-44"}, "[14]": {"conditions": "T-MAZ 20 batch 357, citrate 1.0%, nisin 25 μg/ml, samples jd6-35-H 45-48"}}, "note": "Where “and” joins values, the source holds several entries; their conditions need not be identical. Identical values can stand only once."}
{"smiles": "COC(=O)C(N)CCSC", "note": "(racemic) [DL-methionine methyl ester]", "values": [{"measurement": "Residual nisin concentration", "setting": "[1]; [4]", "value": "21.9 µg/mL and 20.8 µg/mL"}]}
{"smiles": "CS(=O)(=O)CCC(N)C(=O)O", "note": "(racemic) [DL-methionine sulfone]", "values": [{"measurement": "Residual nisin concentration", "setting": "[1]; [4]", "value": 8.6, "unit": "µg/mL"}]}
{"smiles": "C[S+]([O-])CCC(N)C(=O)O", "note": "(racemic) [DL-methionine sulfoxide]", "values": [{"measurement": "Residual nisin concentration", "setting": "[1]; [4]", "value": 8.6, "unit": "µg/mL"}]}
{"smiles": "CSCCC(N)C(=O)O", "note": "(racemic) [DL-methionine]", "values": [{"measurement": "Residual nisin concentration", "setting": "[1]; [4]", "value": 19.7, "unit": "µg/mL"}]}
{"smiles": "CSCCC(O)C(=O)O", "note": "(racemic) [MHA, 2-hydroxy-4-(methylthio)butanoic acid]", "values": [{"measurement": "Residual nisin concentration", "setting": "[1]; T-MAZ 20 1%, 6 days at 40° C., initial nisin 25 μg/ml, label nisin = no methionine, listed as methionine hydroxy analog (MHA Novus)", "value": 19.8, "unit": "µg/mL"}, {"measurement": "Residual nisin concentration", "setting": "[1]; T-MAZ 20 1%, 6 days at 40° C., initial nisin 25 μg/ml, label nisin = no methionine, listed as methionine hydroxy analog (Sigma)", "value": 18.1, "unit": "µg/mL"}, {"measurement": "Residual nisin concentration", "setting": "[1]; [5]", "value": 23.4, "unit": "µg/mL"}, {"measurement": "Residual nisin concentration", "setting": "[1]; [6]", "value": 22.5, "unit": "µg/mL"}]}
{"smiles": "O[C@H](CS)[C@H](O)CS", "note": "(racemic) [dithiothreitol]", "values": [{"measurement": "Protection of nisin in formulation by antioxidants, in words", "setting": "[2]", "value": "aggravated the stability problem"}]}
{"smiles": "N[C@@H](CS)C(=O)O", "note": "[CySH, cysteine]", "values": [{"measurement": "Residual nisin concentration as a percentage of the theoretical concentration", "setting": "[1]; [7]", "value": 51, "unit": "%"}, {"measurement": "Residual nisin concentration as a percentage of the theoretical concentration", "setting": "[1]; [8]", "value": 36, "unit": "%"}, {"measurement": "Residual nisin concentration as a percentage of the theoretical concentration", "setting": "[1]; [9]", "value": 29, "unit": "%"}, {"measurement": "Residual nisin concentration as a percentage of the theoretical concentration", "setting": "[1]; [10]", "value": 33, "unit": "%"}, {"measurement": "Residual nisin concentration as a percentage of the theoretical concentration", "setting": "[1]; [11]", "value": 85, "unit": "%"}, {"measurement": "Residual nisin concentration as a percentage of the theoretical concentration", "setting": "[1]; [12]", "value": 29, "unit": "%"}, {"measurement": "Residual nisin concentration as a percentage of the theoretical concentration", "setting": "[1]; [13]", "value": 36, "unit": "%"}, {"measurement": "Residual nisin concentration as a percentage of the theoretical concentration", "setting": "[1]; [14]", "value": 31, "unit": "%"}]}
{"smiles": "CSCC[C@H](N)C(=O)O", "note": "[L-methionine]", "values": [{"measurement": "Residual nisin concentration", "setting": "[1]; [4]", "value": 19.9, "unit": "µg/mL"}]}
{"smiles": "NCCCC[C@H](N)C(=O)O", "note": "[Lys, lysine]", "values": [{"measurement": "Residual nisin concentration as a percentage of the theoretical concentration", "setting": "[1]; [7]", "value": 56, "unit": "%"}, {"measurement": "Residual nisin concentration as a percentage of the theoretical concentration", "setting": "[1]; [8]", "value": 45, "unit": "%"}, {"measurement": "Residual nisin concentration as a percentage of the theoretical concentration", "setting": "[1]; [9]", "value": 47, "unit": "%"}, {"measurement": "Residual nisin concentration as a percentage of the theoretical concentration", "setting": "[1]; [10]", "value": 49, "unit": "%"}, {"measurement": "Residual nisin concentration as a percentage of the theoretical concentration", "setting": "[1]; [11]", "value": 80, "unit": "%"}, {"measurement": "Residual nisin concentration as a percentage of the theoretical concentration", "setting": "[1]; [12]", "value": 71, "unit": "%"}, {"measurement": "Residual nisin concentration as a percentage of the theoretical concentration", "setting": "[1]; [13]", "value": 71, "unit": "%"}, {"measurement": "Residual nisin concentration as a percentage of the theoretical concentration", "setting": "[1]; [14]", "value": 71, "unit": "%"}]}
{"smiles": "O=C1O[C@H]([C@@H](O)CO)C(O)=C1O", "note": "[ascorbate, ascorbic acid]", "values": [{"measurement": "Protection of nisin in formulation by antioxidants, in words", "setting": "[2]", "value": "aggravated the stability problem"}]}
{"smiles": "O=C(O)CC(O)(CC(=O)O)C(=O)O", "note": "[citrate]", "values": [{"measurement": "Effect of humectant (glycerol, sorbitol) and chelating agent on nisin stability, in words", "setting": "[3]", "value": "superior to EDTA"}]}
{"smiles": "N[C@@H](CS(=O)(=O)O)C(=O)O", "note": "[cysteic acid]", "values": [{"measurement": "Residual nisin concentration", "setting": "[1]; [5]", "value": 9.6, "unit": "µg/mL"}, {"measurement": "Residual nisin concentration", "setting": "[1]; [6]", "value": 19.5, "unit": "µg/mL"}]}
{"smiles": "N[C@@H](CSSC[C@H](N)C(=O)O)C(=O)O", "note": "[cystine]", "values": [{"measurement": "Residual nisin concentration", "setting": "[1]; [5]", "value": 9.0, "unit": "µg/mL"}, {"measurement": "Residual nisin concentration", "setting": "[1]; [6]", "value": 11.1, "unit": "µg/mL"}]}
{"smiles": "N[C@@H](CSC[C@H](N)C(=O)O)C(=O)O", "note": "[lanthionine]", "values": [{"measurement": "Residual nisin concentration", "setting": "[1]; [5]", "value": 10.7, "unit": "µg/mL"}, {"measurement": "Residual nisin concentration", "setting": "[1]; [6]", "value": 18.2, "unit": "µg/mL"}]}
{"smiles": "CSCC[C@H](N)C(=O)O", "note": "[methionine]", "values": [{"measurement": "Residual nisin concentration", "setting": "[1]; [5]", "value": 23.3, "unit": "µg/mL"}, {"measurement": "Residual nisin concentration", "setting": "[1]; [6]", "value": 23.2, "unit": "µg/mL"}, {"measurement": "Residual nisin concentration as a percentage of the theoretical concentration", "setting": "[1]; [7]", "value": 80, "unit": "%"}, {"measurement": "Residual nisin concentration as a percentage of the theoretical concentration", "setting": "[1]; [8]", "value": 76, "unit": "%"}, {"measurement": "Residual nisin concentration as a percentage of the theoretical concentration", "setting": "[1]; [9]", "value": 73, "unit": "%"}, {"measurement": "Residual nisin concentration as a percentage of the theoretical concentration", "setting": "[1]; [10]", "value": 73, "unit": "%"}, {"measurement": "Residual nisin concentration as a percentage of the theoretical concentration", "setting": "[1]; [11]", "value": 84, "unit": "%"}, {"measurement": "Residual nisin concentration as a percentage of the theoretical concentration", "setting": "[1]; [12]", "value": 75, "unit": "%"}, {"measurement": "Residual nisin concentration as a percentage of the theoretical concentration", "setting": "[1]; [13]", "value": 76, "unit": "%"}, {"measurement": "Residual nisin concentration as a percentage of the theoretical concentration", "setting": "[1]; [14]", "value": 73, "unit": "%"}]}
{"smiles": "O=S([O-])[O-].[Na+].[Na+]", "note": "[sodium sulfite]", "values": [{"measurement": "Protection of nisin in formulation by antioxidants, in words", "setting": "[2]", "value": "aggravated the stability problem"}]}
{"smiles": "C1CSCN1", "note": "[thizaolidine, thiazolidine]", "values": [{"measurement": "Residual nisin concentration", "setting": "[1]; [5]", "value": 14.9, "unit": "µg/mL"}, {"measurement": "Residual nisin concentration", "setting": "[1]; [6]", "value": 17.3, "unit": "µg/mL"}, {"measurement": "Stabilization of nisin from degradation by sulfur-containing compounds, in words", "setting": "[1]; nisin 25 μg/ml, T-MAZ 20, propyleneglycol, 1-propanol, EDTA or citrate, pH 6, 40° C.", "value": "To a lesser degree, nisin was also stabilized"}]}
